Measured values reported in patent publication US20240246918A1, “COMPOUNDS AND COMPOSITIONS AS EIF4E INHIBITORS AND THE USES THEREOF” (Ribometrix, Inc., priority 2022, published 2024).

Columns and labels:
[1] = molecular target: T1, human eIF4E protein (Homo sapiens, UniProt P06730); assay: Biochemical competitive binding assay (TR-FRET competition, EDA-m7GDP-ATTO-647N probe); conditions: read-out: hEIF4E TR-FRET IC50
T1 construct: purchased Novus NBP-45314
Procedure, shortened: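 IC50 values come from 4-parameter fits of the normalized 665/620 nm TR-FRET ratio. Compound was first incubated 15 min with 4 nM recombinant His-eIF4E bound to 2.5 nM Eu-anti-His antibody, then 15 min with 5 nM m7GDP-ATTO-647N tracer, in pH 7.5 HEPES buffer with 100 mM KCl, Tween-20 and BSA.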

[2] = system: COLO 205 colorectal tumor cells; assay: Tumor cell viability inhibition assay (CellTiter-Glo 2.0, 72 hours); type: cell-based; conditions: COLO 205 cell viability
Procedure, shortened: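 IC50 derived by 4-parameter fitting after normalizing luminescence to DMSO and max-inhibition wells. Compounds tested as 11 concentrations in 4-fold steps on COLO 205 cells seeded at 1500 per well in RPMI-1640/10% FBS; ATP content measured with CellTiter-Glo 2.0 after 72 h.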

T1 sequence (P06730 whole entry): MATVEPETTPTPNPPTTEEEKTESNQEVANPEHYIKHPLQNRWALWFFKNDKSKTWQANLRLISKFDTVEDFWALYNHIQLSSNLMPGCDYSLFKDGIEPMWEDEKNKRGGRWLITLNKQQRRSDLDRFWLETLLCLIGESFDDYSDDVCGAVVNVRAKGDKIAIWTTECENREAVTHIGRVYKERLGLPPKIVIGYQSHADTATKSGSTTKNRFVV

Compound | IC50 [1] | IC50 ([2]; Homo sapiens, COLO 205, 72 h) | IC50 [2]
Cc1cc(-c2cc(Cl)ccc2OCCn2c(C)nc3c(c2=O)C[C@@H](N2CC[C@@H](OC(F)(F)F)C(F)(F)C2)CC3)c2scc(C(=O)O)c2n1 (single isomer, unassigned) [Compound 405] | < 0.1 µM | 5 to 20 µM | 
Cc1cc(-c2cc(Cl)ccc2OCCn2c(C)nc3c(c2=O)C[C@@H](N2CC[C@H](OC(F)(F)F)C(F)(F)C2)CC3)c2scc(C(=O)O)c2n1 (single isomer, unassigned) [Compound 406] | < 0.1 µM | 5 to 20 µM | 
Cc1cc(-c2cc(Cl)ccc2OCCn2c(C)nc3c(c2=O)C[C@@H](N2CCC(COC(F)(F)F)CC2)CC3)c2scc(C(=O)O)c2n1 (single isomer, unassigned) [Compound 407] | < 0.1 µM | < 5 µM | 
Cc1cc(-c2cc(Cl)ccc2OCCn2c(C)nc3c(c2=O)C[C@H](N2CCCC[C@H]2C)CC3)c2scc(C(=O)O)c2n1 (single isomer, unassigned) [Compound 408] | < 0.1 µM | 5 to 20 µM | 
COC1CCN(C2CCc3nc(C)n(CC#Cc4ccc(Cl)cc4-c4ccnc5c(C(=O)O)csc45)c(=O)c3C2)CC1 (single isomer, unassigned) [Compound 410] | < 0.1 µM |  | 5 to 20 µM
Cc1cc(-c2cc(Cl)ccc2OCCn2c(C)nc3c(c2=O)C[C@H](NC24CC5CC(CC(C5)C2)C4)CC3)c2scc(C(=O)O)c2n1 (single isomer, unassigned) [Compound 412] | < 0.1 µM | < 5 µM | 
COC1CCN(C2CCc3nc(C)n(CC#Cc4ccc(Cl)cc4-c4ccnc5c(C(=O)NS(C)(=O)=O)csc45)c(=O)c3C2)CC1 (single isomer, unassigned) [Compound 414] | < 0.1 µM | < 5 µM | 
CO[C@H]1CCN([C@@H]2CCc3nc(C)n(CCOc4ccc(Cl)cc4-c4cc(C)nc5c(C(=O)O)csc45)c(=O)c3C2)CC1(C)C (single isomer, unassigned) [Compound 415] | < 0.1 µM | < 5 µM | 
Cc1cc(-c2cc(Cl)ccc2OCCn2c(C)nc3c(c2=O)CC(N2CCC(OC(F)(F)F)CC2)CC3)c2scc(C(=O)NS(=O)(=O)C(F)F)c2n1 (single isomer, unassigned) [Compound 416] | < 0.1 µM | 5 to 20 µM | 
Cc1cc(-c2cc(Cl)ccc2OCCn2c(C)nc3c(c2=O)C[C@H](N2CCC(c4ccc(F)cc4F)CC2)CC3)c2scc(C(=O)O)c2n1 (single isomer, unassigned) [Compound 418] | < 0.1 µM | < 5 µM | 
Cc1cc(-c2cc(Cl)ccc2OCCn2c(C)nc3c(c2=O)C[C@@H](N2CCC(c4ccc(F)cc4F)CC2)CC3)c2scc(C(=O)O)c2n1 (single isomer, unassigned) [Compound 419] | < 0.1 µM | < 5 µM | 
Cc1cc(-c2cc(Cl)ccc2OCCn2c(C)nc3c(c2=O)C[C@H](N2CCC4(CC2)COCCO4)CC3)c2scc(C(=O)O)c2n1 (single isomer, unassigned) [Compound 424] | < 0.1 µM | < 5 µM | 
Cc1cc(-c2cc(Cl)ccc2OCCn2c(C)nc3c(c2=O)C[C@@H](N2CCC4(CC2)COCCO4)CC3)c2scc(C(=O)O)c2n1 (single isomer, unassigned) [Compound 425] | < 0.1 µM | 5 to 20 µM | 
Cc1cc(-c2cc(Cl)ccc2OCCn2c(C)nc3c(c2=O)C[C@@H](N2CCC(c4cnn(C)c4)CC2)CC3)c2scc(C(=O)O)c2n1 (single isomer, unassigned) [Compound 427] | < 0.1 µM | < 5 µM | 
Cc1csc(C2CCN([C@@H]3CCc4nc(C)n(CCOc5ccc(Cl)cc5-c5cc(C)nc6c(C(=O)O)csc56)c(=O)c4C3)CC2)n1 (single isomer, unassigned) [Compound 429] | < 0.1 µM | < 5 µM | 
Cc1cc(-c2cc(Cl)ccc2OCCn2c(C)nc3c(c2=O)C[C@H](N2CCC4(CC2)NC(=O)NC4=O)CC3)c2scc(C(=O)O)c2n1 (single isomer, unassigned) [Compound 430] | < 0.1 µM | < 5 µM | 
Cc1cc(-c2cc(Cl)ccc2OCCn2c(C)nc3c(c2=O)C[C@@H](N2CCC4(CC2)NC(=O)NC4=O)CC3)c2scc(C(=O)O)c2n1 (single isomer, unassigned) [Compound 431] | < 0.1 µM | < 5 µM | 
Cc1cc(-c2cc(Cl)ccc2OCCn2c(C)nc3c(c2=O)CC(N2CCC(C(F)(F)F)CC2)CC3)c2scc(C(=O)NS(C)(=O)=O)c2n1 (single isomer, unassigned) [Compound 432] | < 0.1 µM | < 5 µM | 
Cc1cc(-c2cc(Cl)ccc2OCCn2c(C)nc3c(c2=O)CC(N2CCC(C(F)(F)F)CC2)CC3)c2scc(C(=O)NS(C)(=O)=O)c2n1 (single isomer, unassigned) [Compound 433] | < 0.1 µM |  | < 5 µM
Cc1cc(-c2cc(Cl)ccc2OCCn2c(C)nc3c(c2=O)C[C@H](N2CCC(O)CC2)CC3)c2scc(C(=O)O)c2n1 (single isomer, unassigned) [Compound 434] | < 0.1 µM | < 5 µM | 
Cc1cc(-c2cc(Cl)ccc2OCCn2c(C)nc3c(c2=O)C[C@@H](N2CCC(O)CC2)CC3)c2scc(C(=O)O)c2n1 (single isomer, unassigned) [Compound 435] | < 0.1 µM | < 5 µM | 
Cc1cc(-c2cc(Cl)ccc2OCCn2c(C)nc3c(c2=O)C[C@@H](N2CCCC[C@H]2C)CC3)c2scc(C(=O)O)c2n1 (single isomer, unassigned) [Compound 437] | < 0.1 µM | 5 to 20 µM | 
Cc1cc(-c2cc(Cl)ccc2OCCn2c(C)nc3c(c2=O)C[C@H](N2CCC[C@@]4(C2)CC4(F)F)CC3(C)C)c2scc(C(=O)O)c2n1 (single isomer, unassigned) [Compound 439] | < 0.1 µM | < 5 µM | 
Cc1cc(-c2cc(Cl)ccc2OCCn2c(C)nc3c(c2=O)C[C@@H](N2CCC[C@]4(C2)CC4(F)F)CC3(C)C)c2scc(C(=O)O)c2n1 (single isomer, unassigned) [Compound 440] | < 0.1 µM | 5 to 20 µM | 
Cc1cc(-c2cc(Cl)ccc2OCCn2c(C)nc3c(c2=O)C[C@@H](N2CCC[C@@]4(C2)CC4(F)F)CC3(C)C)c2scc(C(=O)O)c2n1 (single isomer, unassigned) [Compound 441] | < 0.1 µM | 5 to 20 µM | 

Next, values leading:

IC50 [1] | IC50 ([2]; Homo sapiens, COLO 205, 72 h) | IC50 [2] | Compound
< 0.1 µM | 5 to 20 µM |  | Cc1cc(-c2cc(Cl)ccc2OCCn2c(C)nc3c(c2=O)C[C@H](N2CC[C@@H](OC(F)(F)F)C(F)(F)C2)CC3)c2scc(C(=O)O)c2n1 (single isomer, unassigned) [Compound 403]
< 0.1 µM | 5 to 20 µM |  | Cc1cc(-c2cc(Cl)ccc2OCCn2c(C)nc3c(c2=O)C[C@H](N2CC[C@H](OC(F)(F)F)C(F)(F)C2)CC3)c2scc(C(=O)O)c2n1 (single isomer, unassigned) [Compound 404]
< 0.1 µM | > 20 µM |  | Cc1cc(-c2cc(Cl)ccc2OCCn2c(C)nc3c(c2=O)C[C@@H](N2CCCC[C@@H]2C)CC3)c2scc(C(=O)O)c2n1 (single isomer, unassigned) [Compound 409]
< 0.1 µM | 5 to 20 µM |  | Cc1cc(-c2cc(Cl)ccc2OCCn2c(C)nc3c(c2=O)C[C@@H](NC24CC5CC(CC(C5)C2)C4)CC3)c2scc(C(=O)O)c2n1 (single isomer, unassigned) [Compound 413]
< 0.1 µM | < 5 µM |  | Cc1cc(-c2cc(Cl)ccc2OCCn2c(C)nc3c(c2=O)CC(N2CCC(OC(F)(F)F)CC2)CC3)c2scc(C(=O)NS(=O)(=O)C3CC3)c2n1 (single isomer, unassigned) [Compound 417]
< 0.1 µM | 5 to 20 µM |  | Cc1cc(-c2cc(Cl)ccc2OCCn2c(C)nc3c(c2=O)C[C@H](N2CCC4(CCCO4)CC2)CC3)c2scc(C(=O)O)c2n1 (single isomer, unassigned) [Compound 420]
< 0.1 µM | < 5 µM |  | Cc1cc(-c2cc(Cl)ccc2OCCn2c(C)nc3c(c2=O)C[C@@H](N2CCC4(CCCO4)CC2)CC3)c2scc(C(=O)O)c2n1 (single isomer, unassigned) [Compound 421]
< 0.1 µM | 5 to 20 µM |  | Cc1cc(-c2cc(Cl)ccc2OCCn2c(C)nc3c(c2=O)C[C@H](N2CCC(n4ccnn4)CC2)CC3)c2scc(C(=O)O)c2n1 (single isomer, unassigned) [Compound 422]
< 0.1 µM | 5 to 20 µM |  | Cc1cc(-c2cc(Cl)ccc2OCCn2c(C)nc3c(c2=O)C[C@@H](N2CCC(n4ccnn4)CC2)CC3)c2scc(C(=O)O)c2n1 (single isomer, unassigned) [Compound 423]
< 0.1 µM | 5 to 20 µM |  | Cc1cc(-c2cc(Cl)ccc2OCCn2c(C)nc3c(c2=O)C[C@H](N2CCC(c4cnn(C)c4)CC2)CC3)c2scc(C(=O)O)c2n1 (single isomer, unassigned) [Compound 426]
< 0.1 µM | < 5 µM |  | Cc1csc(C2CCN([C@H]3CCc4nc(C)n(CCOc5ccc(Cl)cc5-c5cc(C)nc6c(C(=O)O)csc56)c(=O)c4C3)CC2)n1 (single isomer, unassigned) [Compound 428]
< 0.1 µM | < 5 µM |  | Cc1cc(-c2cc(Cl)ccc2OCCn2c(C)nc3c(c2=O)C[C@H](N2CCCC[C@@H]2C)CC3)c2scc(C(=O)O)c2n1 (single isomer, unassigned) [Compound 436]
< 0.1 µM | < 5 µM |  | Cc1cc(-c2cc(Cl)ccc2OCCn2c(C)nc3c(c2=O)C[C@H](N2CCC[C@]4(C2)CC4(F)F)CC3(C)C)c2scc(C(=O)O)c2n1 (single isomer, unassigned) [Compound 438]
